Measured values reported in patent US6368788B1 (priority 1987, dated 2002).
Marks after values point to notes of the source that are not given here.

Columns and labels:
[1] = Lymphatic infections (lymphangitis); assay type: in vivo; conditions: 100 μg im, 1 μg/kg intranasally or intralymphatically
[2] = tested on: lymphocytes of lymphoid organs; test: Immune indices (E-RFC, EA-RFC, EAC-RFC) in healthy guinea pigs; assay type: in vivo; conditions: for E-RFC / EA-RFC / EAC-RFC: healthy guinea pigs, 1 mg/kg im daily 5 days, day 10
Method: Immune parameters were investigated in healthy male guinea pigs ([…]) following administration of test or control agents. Each test and control group consisted of 10 animals. […] Physiological saline was administered im to the animals of the control group. The affects of these treatments were determined on day 10 (i.e., 5 days after the last injection) by preparing cells from peripheral blood (PBL), thymus (TYM), lymph nodes (LN), spleen (SPL), and red pulp of bone marrow (BM). Cells were tested for antibody Fc receptors (EA-RFC), complement receptors (EAC-RFC), T-lymphocytes, “active” T-lymphocytes (E-RFC), B-lymphocytes (EA-RFC and EAC-RFC; according to the method of Bianco, C., et al., J. Exp. Med. 132(4):702-720 (1970). The results of these analyses are shown in TABLES 53-54, below, where data are expressed either as the number of RFC×10^9 per liter of blood, or RFC×10^3 per milligram (mg) of tissue.
Thymus, left paratracheal lymph node, and spleen were surgically removed, weighed, and homogenized in a glass Dounce homogenizer in Medium 199. Tissue fragments were removed by filtration through a chaperon. Bone marrow cell suspensions were prepared by irrigating the bone marrow canal of the pelvis with Medium 199 and homogenizing the irrigated solution. Suspensions from the different respective sources were purified by centrifuging the different cell samples on different aliquots of δ1.077 Ficoll-Urotrast for 40 minutes at 1500-1800 rpm. The lymphocyte interfaces from the gradients were collected into a siliconized test tube and washed in Medium 199. Residual red cells in the lymphocyte suspensions were lysed using 3% acetic acid in the presence of 0.05% Hessian-violet as a viability marker. Cell concentrations were determined microscopically using a Goryaev counting chamber. Cell concentrations were adjusted to 2.5×10^6/mL.
Ram erythrocytes (E) were washed 4× in saline (2000 rpm/10 min.) and suspended at a final concentration of 1% in Medium 199. For determinations of the percentage of E-rosette forming T-lymphocytes (E-RFC) in a sample, 0.1 mL of a prepared lymphocyte suspension (2.5×10^6/ml) was incubated with 0.1 mL of the 1% ram erythrocyte suspension at 37° C. for 10 min., centrifuged at 800-1000 rpm for 5 min., maintained at 4° C. for 2 hrs., and finally resuspended and counted in a Goryaev chamber. Activated T-lymphocytes (i.e., having increased E-RFC capacity) were determined by mixing the test lymphocyte suspension with E, immediately centrifuging for 5 min. at 800-1000 rpm, resuspending the cells and counting the rosettes formed in a Goryaev chamber.
Antibody-coated rabbit erythrocytes were used for determinations of EA-RFC (i.e., “activated” T-lymphocytes) according to the method of Stadecker, M. J., et al., J. Immunol. 11(6):1834-1837 (1973). Erythrocytes were prepared, incubated with an optimal dilution of anti-rabbit IgG, washed, and prepared as a 1% cell suspension in a manner analogous to those above (E-RFC, supra). EA-RFC assays were performed in a manner analogous to the description above, i.e., E-RFC, supra.
Determinations of EAC-RFC (i.e., B-lymphocytes) were performed according to the method described by Bianco, C., et al., J. Exp. Med. 132(4):702-720 (1970).

[3] = tested on: peripheral blood lymphocytes; test: Breast cancer patients after radiotherapy treated with L-Glu-L-Trp 100 μg im daily; assay type: in vivo, human
Method: Thirty six patients with breast cancer were treated with conventional radiation therapy (i.e., single doses of about 2-3 Gy daily for 10 days; total cumulative patient dose of 20-30 Gy). Following radiotherapy the patients were treated with L-Glu-L-Trp by injection of daily dosages im of 100 μg. The patients had been previously treated with radiation therapy (single doses 2 Gy; total dose 20-30 Gy).

L-Glu-L-Trp
Clinical outcome [1]: controls the progression of lymphangitis
Decrease of T-lymphocytes in LN and BM ([2]; 1 mg/kg im, 5 days): 50%
Increase of splenic and thymus T-cells ([2]; 1 mg/kg im, 5 days): 2-9%
E-RFC ([2]; BM): 11.2 ± 2.3* 10^3/mg
EA-RFC ([2]; BM): 25.1 ± 1.9* 10^3/mg
EAC-RFC ([2]; BM): 13.9 ± 2.1 10^3/mg
E-RFC ([2]; LN): 81.4 ± 7.6* 10^3/mg
EA-RFC ([2]; LN): 61.7 ± 8.2 10^3/mg
EAC-RFC ([2]; LN): 173.3 ± 12.7 10^3/mg
E-RFC ([2]; PBL): 1.59 ± 0.78 10^9/L
EA-RFC ([2]; PBL): 0.82 ± 0.09 10^9/L
EAC-RFC ([2]; PBL): 0.79 ± 0.08* 10^9/L
E-RFC ([2]; SPL): 75.9 ± 6.8 10^3/mg
EA-RFC ([2]; SPL): 81.2 ± 7.4* 10^3/mg
EAC-RFC ([2]; SPL): 141.5 ± 22.6 10^3/mg
E-RFC ([2]; TYM): 448.1 ± 51.4 10^3/mg
EA-RFC ([2]; TYM): 542.6 ± 42.3 10^3/mg
EAC-RFC ([2]; TYM): 0 10^3/mg
Increase of complement receptor bearing cells (EAC-RFC) in blood ([2]; guinea pig, in vivo): 2 fold
CD2+ lymphocytes (E-RFC), BM ([2]; treated guinea pigs): 50% ↓ (p < 0.05)
CD2+ lymphocytes (E-RFC), LN ([2]; treated guinea pigs): 32% ↓ (p < 0.05)
CD2+ lymphocytes (E-RFC), Spleen ([2]; treated guinea pigs): ns
CD2+ lymphocytes (E-RFC), Thymus ([2]; treated guinea pigs): ns
Fc-receptor+ lymphocytes (EA-RFC), LN ([2]; treated guinea pigs): ns
Fc-receptor+ lymphocytes (EA-RFC), PBL ([2]; treated guinea pigs): ns
Fc-receptor+ lymphocytes (EA-RFC), Thymus ([2]; treated guinea pigs): ns
B-lymphocyte (Ig+) [3]: 0.17 ± 0.02 ×10^9/L
B-lymphocyte (Ig+), Ratio Post-Rad/Pre-Rad Value [3]: (1.1)
B-lymphocyte (Ig+), Ratio Post-Treat/Pre-Treat Value [3]: (1.55)
C3-complement [3]: 0.68 ± 0.04 g/L
DTH to tuberculin [3]: 8.7 ± 0.6 mm
DTH to tuberculin, Ratio Post-Rad/Pre-Rad Value [3]: (1.2)
Granulocyte Cation Proteins [3]: 1.49 ± 0.12
Granulocyte Phagocytic Index [3]: 3.7 ± 0.2
LMI with ConA [3]: 71 ± 5 %
Lymphocytes [3]: 1.72 ± 0.21 ×10^9/L
Lymphocytes, Ratio Post-Rad/Pre-Rad Value [3]: (1.1)
Lymphocytes, Ratio Post-Treat/Pre-Treat Value [3]: (2.18)
OKT4+/OKT8+ [3]: 1.86 ± 0.17
T-Lymphocytes [3]: 0.92 ± 0.12 ×10^9/L
T-helpers (OKT4+) [3]: 0.39 ± 0.04 ×10^9/L
T-helpers (OKT4+), Ratio Post-Rad/Pre-Rad Value [3]: (1.3)
T-helpers (OKT4+), Ratio Post-Treat/Pre-Treat Value [3]: (3.25)
T-lymphocytes, Ratio Post-Rad/Pre-Rad Value [3]: (1.1)
T-lymphocytes, Ratio Post-Treat/Pre-Treat Value [3]: (2.88)
T-suppressors (OKT8+) [3]: 0.21 ± 0.03 ×10^9/L
T-suppressors (OKT8+), Ratio Post-Rad/Pre-Rad Value [3]: (0.8)
T-suppressors (OKT8+), Ratio Post-Treat/Pre-Treat Value [3]: (1.31)
“Active” T-lymphocytes [3]: 0.52 ± 0.07 ×10^9/L
“Active” T-lymphocytes, Ratio Post-Rad/Pre-Rad Value [3]: (1.1)
“Active” T-lymphocytes, Ratio Post-Treat/Pre-Treat Value [3]: (2.74)
